Assay results published in patent US20100119479A1, “THERAPEUTIC ANTIVIRAL PEPTIDES” (INTERMUNE, INC., priority 2008, published 2010).
pEC50, pIC50: −log10 of the molar value.

What was measured:
[1] = target: T1, full-length NS3/NS4A-2 (HCV NS3 protease) (Hepatitis C virus genotype 1b, UniProt Q9WMX2); assay: NS3 Inhibition Assay (NS3-NS4 protease assay, RETS1 substrate); assay type: biochemical; conditions: NS3/NS4A-2 protease
T1 construct: Recombinant E. coli or Baculovirus full-length NS3; host or cells: E. coli or baculovirus (BV) expression
Method: NS3 Complex Formation with NS4A-2.
Recombinant E. coli or Baculovirus full-length NS3 was diluted to 3.33 μM with assay buffer and transferred material to an eppendorf tube and placed in a water bath in a 4° C. refrigerator. The appropriate amount of NS4A-2 diluted to […] in assay buffer was added to equal the volume of NS3 above (conversion factor—3.8 mg/272 μL assay buffer). The material was transferred to an eppendorf tube and placed in water bath in a 4° C. refrigerator.
After equilibration to 4° C., equal volumes of NS3 and NS4A-2 solutions were combined in an eppendorf tube, mix gently with a manual pipettor, and incubate mixture for 15 minutes in the 4° C. water bath. Final concentrations in the mixture are 1.67 μM NS3, 4.15 mM NS4A-2 (2485-fold molar excess NS4A-2).
After 15 minutes at 4° C., the NS3/NS4A-2 eppendorf tube was removed and place it in a room temperature water bath for 10 minutes. NS3/NS4A-2 was aliquoted at appropriate volumes and store at −80° C. (E. coli NS3 run at 2 nM in assay, aliquot at 25 μL. BV NS3 run at 3 nM in assay, aliquot at 30 μL).
Step a. Sample compounds were dissolved to 10 mM in DMSO then diluted to 2.5 mM (1:4) in DMSO. Typically, compounds were added to an assay plate at 2.5 mM concentration, yielding upon dilution a starting concentration of 50 microM in the assay inhibition curve. Compounds were serial diluted in assay buffer to provide test solutions at lower concentrations.
Step b. The E. coli. NS3/NS4A-2 was diluted to 4 nM NS3 (1:417.5 of 1.67 μM stock−18 μL1.67 μM stock+7497 μL assay buffer). The BV NS3/NS4A-2 was diluted to 6 nM NS3 (1:278.3 of 1.67 μM stock−24 μL1.67 μM stock+6655 μL assay buffer).
Step c. Using the manual multichannel pipettor, and being careful not to introduce bubbles into the plate, 50 μL assay buffer were added to wells A01-H01 of a black Costar 96-well polypropylene storage plate.
Step d. Using the manual multichannel pipettor, and being careful not to introduce bubbles into the plate, 50 μL of diluted NS3/NS4A-2 from Step b were added to wells A02-H12 of the plate in Step c.
Step e. Using the manual multichannel pipettor, and being careful not to introduce bubbles into the plate, 25 μL of the wells in drug dilution plate in Step a were transferred to corresponding wells in assay plate in Step d. The tips on the multichannel pipettor were changed for each row of compounds transferred.
Step f Using the manual multichannel pipettor, and being careful not to introduce bubbles into the plate, the contentes of the wells from the assay plate in Step e were mixed by aspirating and dispensing 35 μL of the 75 μL in each well five times. The tips on multichannel pipettor were changed for each row of wells mixed.
Step g. The plate was covered with a polystyrene plate lid, and the plate from Step f containing NS3 protease and sample compounds was pre-incubated 10 minutes at room temperature.
While plate from Step g is pre-incubating, the RETS1 substrate was diluted in a 15 mL polypropylene centrifuge tube. The RETS1 substrate was diluted to 8 μM (1:80.75 of 646 μM stock—65 μL 646 μM stock+5184 μL assay buffer).
After the plate in Step g was done pre-incubating, and using the manual multichannel, 25 μL of substrate were added to all wells on the plate. The contents of the wells of the plate were quickly mixed, as in Step f, mixing 65 μL of the 100 μL in the wells.
The plate was read in kinetic mode on the Molecular Devices SpectraMax Gemini XS plate reader. Reader settings: Read time: 30 minutes, Interval: 36 seconds, Reads: 51, Excitation λ: 335 nm, Emission λ: 495 nm, cutoff: 475 nm, Automix: off, Calibrate: once, PMT: high, Reads/well: 6, Vmax pts: 21 or 28/51 depending on length of linearity of reaction
IC50s are determined using a four parameter curve fit equation, and converted to Ki's using the following Km's: […]
Full-length E. coli NS3−2.03 μM
Full-length BV NS3−1.74 μM
where Ki=IC50/(1+[S]/Km))

[2] = system: HCV sub-genomic replicon, GS4.3 (HuH-7 hepatoma cells); assay: Quantitation by ELISA of NPTII in the HCV sub-genomic replicon, GS4.3; assay type: cell-based; conditions: Hepatitis C virus, GS4.3 replicon cells, 72 h incubation
Excerpt: Quantitation by ELISA of the Selectable Marker Protein, Neomycin Phosphotransferase II (NPTII) in the HCV Sub-Genomic Replicon, GS4.3
The HCV sub-genomic replicon (1377/NS3-3′, accession No. AJ242652), stably maintained in HuH-7 hepatoma cells, was created by Lohmann et al. Science 285: 110-113 (1999). The replicon-containing cell culture, designated GS4.3, was obtained from Dr. Christoph Seeger of the Institute for Cancer Research, Fox Chase Cancer Center, Philadelphia, Pa.
GS4.3 cells were maintained at 37° C., 5% CO2, in DMEM (Gibco 11965-092) supplemented with L-glutamine 200 mM (100×) (Gibco25030-081), non-essential amino acids (NEAA)(Biowhittaker 13-114E), heat-inactivated (HI) Fetal Bovine Serum(FBS)(Hyclone SH3007.03) and 750 μg/mL geneticin (G418)(Gibco 10131-035). Cells were sub-divided 1:3 or 4 every 2-3 days.
24 h prior to the assay, GS4.3 cells were collected, counted, and plated in 96-well plates (Costar 3585) at 7500 cells/well in […] standard maintenance medium (above) and incubated in the conditions above. To initiate the assay, culture medium was removed, cells were washed once with PBS (Gibco 10010-023) and 90 μl Assay Medium (DMEM, L-glutamine, NEAA, 10% HI FBS, no G418) was added. Inhibitors were made as a 10× stock in Assay Medium, (3-fold dilutions from 10 μM to […] final concentration, final DMSO concentration 1%), […] were added to duplicate wells, plates were rocked to mix, and incubated as above for 72 h.
An NPTII Elisa kit was obtained from AGDIA, Inc. (Compound direct ELISA test system for Neomycin Phosphotransferase II, PSP 73000/4800). Manufacturer's instructions were followed, with some modifications. 10×PEB-1 lysis buffer was made up to include 500 μM PMSF (Sigma P7626, 50 mM stock in isopropanol). After 72 h incubation, cells were washed once with PBS and […] PEB-1 with PMSF was added per well. Plates were agitated vigorously for 15 minutes, room temperature, then frozen at −70° C. Plates were thawed, lysates were mixed thoroughly, and 100 μl were applied to an NPTII Elisa plate. A standard curve was made. Lysate from DMSO-treated control cells was pooled, serially diluted with PEB-1 with PMSF, and applied to duplicate wells of the ELISA plate, in a range of initial lysate amount of 150 μL-2.5 μL. In addition, 100 μL buffer alone was applied in duplicate as a blank. Plates were sealed and gently agitated at room temperature for 2 h. Following capture incubation, the plates were washed 5×300 μL with PBS-T (0.5% Tween-20, PBS-T was supplied in the ELISA kit). For detection, a 1× dilution of enzyme conjugate diluent MRS-2 (5×) was made in PBS-T, into which 1:100 dilutions of enzyme conjugates A and B were added, as per instructions. Plates were resealed, and incubated with agitation, covered, room temperature, for 2 h. The washing was then repeated and 100 μL, of room temperature TMB substrate was added. After approximately 30 minutes incubation (room temperature, agitation, covered), the reaction was stopped with 50 μL, 3M sulfuric acid. Plates were read at 450 nm on a Molecular Devices Versamax plate reader.
Inhibitor effect was expressed as a percentage of DMSO-treated control signal, and inhibition curves were calculated using a 4-parameter equation: y=A+((B−A)/(1+((C/x)̂D))), where C is half-maximal activity or EC50.

T1 sequence (Q9WMX2 1027-1657): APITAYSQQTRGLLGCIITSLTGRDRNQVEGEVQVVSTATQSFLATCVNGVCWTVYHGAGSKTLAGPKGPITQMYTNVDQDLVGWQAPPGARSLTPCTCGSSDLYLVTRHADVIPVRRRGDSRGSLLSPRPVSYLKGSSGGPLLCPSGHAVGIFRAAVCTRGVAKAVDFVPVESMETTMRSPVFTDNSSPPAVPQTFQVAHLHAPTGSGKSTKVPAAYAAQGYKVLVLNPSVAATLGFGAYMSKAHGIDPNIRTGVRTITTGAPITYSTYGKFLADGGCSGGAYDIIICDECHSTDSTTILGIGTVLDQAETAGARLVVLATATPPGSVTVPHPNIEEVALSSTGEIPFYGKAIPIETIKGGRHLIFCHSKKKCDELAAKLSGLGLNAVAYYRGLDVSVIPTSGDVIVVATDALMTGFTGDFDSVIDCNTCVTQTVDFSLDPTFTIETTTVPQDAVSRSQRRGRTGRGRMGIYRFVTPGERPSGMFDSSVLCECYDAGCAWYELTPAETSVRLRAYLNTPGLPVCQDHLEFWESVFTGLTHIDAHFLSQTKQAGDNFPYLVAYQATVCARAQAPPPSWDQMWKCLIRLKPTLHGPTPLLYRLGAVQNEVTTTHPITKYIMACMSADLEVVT
T1 sequence (Q9WMX2 1658-1711): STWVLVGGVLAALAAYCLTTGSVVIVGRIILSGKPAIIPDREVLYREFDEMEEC

Row | Compound | pIC50 [1] | pEC50 [2]
1 | CC[C@@H]1C[C@]1(NC(=O)[C@@H]1C[C@@H](OC(=O)N2Cc3cccc(Cl)c3C2)CN1C(=O)[C@@H](Nc1cccc(C(F)(F)F)c1)C(C)(C)C)C(=O)NS(=O)(=O)C1(C)CC1 [Compound 282] | > 7.00 | > 7.00
2 | CC[C@@H]1C[C@]1(NC(=O)[C@@H]1C[C@@H](Oc2cc(-c3nc(C(C)C)cs3)nc3c(C)c(OC)ccc23)CN1C(=O)[C@@H](Nc1ccc(C(F)(F)F)cc1)C(C)(C)C)C(=O)NS(=O)(=O)C1(C)CC1 [Compound 299] | > 7.00 | > 7.00
3 | C=C[C@@H]1C[C@]1(NC(=O)[C@@H]1C[C@@H](Oc2cc(-c3nc(C(C)C)cs3)nc3c(C)c(OC)ccc23)CN1C(=O)[C@@H](Nc1cc(F)cc(OC(F)(F)F)c1)C(C)(C)C)C(=O)NS(=O)(=O)C1(C)CC1 [Compound 404] | > 7.00 | > 7.00
4 | CC[C@@H]1C[C@]1(NC(=O)[C@@H]1C[C@@H](OC(=O)N2Cc3ccc(NC(=O)COCCOCCOC)cc3C2)CN1C(=O)[C@@H](Nc1cc(F)cc(C(F)(F)F)c1)C(C)(C)C)C(=O)NS(=O)(=O)C1CC1 [Compound 18] | 6.00 to 7.00 | 6.00 to 7.00
5 | CC[C@@H]1C[C@]1(NC(=O)[C@@H]1C[C@@H](OC(=O)N2Cc3cccc(F)c3C2)CN1C(=O)[C@@H](Nc1cccc(C(=O)O)c1)C(C)(C)C)C(=O)NS(=O)(=O)C1CC1 [Compound 5] | > 7.00 | < 6.00
6 | C=C[C@@H]1C[C@]1(NC(=O)[C@@H]1C[C@@H](Oc2nccc3ccccc23)CN1C(=O)[C@@H](Nc1cc(F)cc(C(F)(F)F)c1)C(C)(C)C)C(=O)NS(=O)(=O)C1CC1 [Compound 7] | > 7.00 | > 7.00
7 | CC[C@@H]1C[C@]1(NC(=O)[C@@H]1CC(Oc2cc(-c3nc(C(C)C)cs3)nc3c(C)c(OC)ccc23)CN1C(=O)[C@@H](Nc1cccc(C(F)(F)F)c1)C(C)(C)C)C(=O)NS(=O)(=O)C1(C)CC1 (stereo partly shown) [Compound 336] | > 7.00 | > 7.00
8 | C=C[C@@H]1C[C@]1(NC(=O)[C@@H]1C[C@@H](Oc2cc(-c3nc(C(C)C)cs3)nc3c(C)c(OC)ccc23)CN1C(=O)[C@@H](Nc1ccccc1[N+](=O)[O-])C(C)(C)C)C(=O)NS(=O)(=O)C1CC1 [Compound 351] | 6.00 to 7.00 | > 7.00
9 | C=C[C@@H]1C[C@]1(NC(=O)[C@@H]1C[C@@H](Oc2cc(-c3nc(C(C)C)cs3)nc3c(C)c(OC)ccc23)CN1C(=O)[C@@H](Nc1cccc(C(F)(F)F)c1)C(C)(C)C)C(=O)NS(=O)(=O)C1(C)CC1 [Compound 302] | > 7.00 | > 7.00
10 | C=C[C@@H]1C[C@]1(NC(=O)[C@H]1Cc2cc(Oc3cccc(Cl)c3)ccc2CN1C(=O)[C@@H](Nc1cccc(C(F)(F)F)c1)C(C)(C)C)C(=O)NS(=O)(=O)C1CC1 [Compound 24] | > 7.00 | < 6.00
11 | CC(C)(C)[C@H](Nc1cc(F)cc(C(F)(F)F)c1)C(=O)N1C[C@H](OC(=O)N2Cc3cccc(Cl)c3C2)C[C@H]1C(=O)N[C@]1(C(=O)NS(=O)(=O)C2(C)CC2)C[C@H]1C1CC1 [Compound 298] | > 7.00 | > 7.00
12 | C=C[C@@H]1C[C@]1(NC(=O)[C@@H]1C[C@@H](Oc2cc(-c3nc(C(C)C)cs3)nc3c(C)c(OC)ccc23)CN1C(=O)[C@@H](Nc1cc(F)cc(C(F)(F)F)c1)C(C)(C)C)C(=O)NS(=O)(=O)N(C)C [Compound 307] | > 7.00 | > 7.00
13 | CCOC(=O)c1cccc(N[C@H](C(=O)N2C[C@H](OC(=O)N3Cc4cccc(F)c4C3)C[C@H]2C(=O)N[C@]2(C(=O)NS(=O)(=O)C3CC3)C[C@H]2CC)C(C)(C)C)c1 [Compound 4] | > 7.00 | 6.00 to 7.00
14 | C=C[C@@H]1C[C@]1(NC(=O)[C@@H]1C[C@@H](Oc2cc(-c3nc(C(C)C)cs3)nc3c(C)c(OC)ccc23)CN1C(=O)[C@@H](Nc1ccccc1)C(C)(C)C)C(=O)NS(=O)(=O)C1CC1 [Compound 353] | > 7.00 | > 7.00
15 | CC(C)(C)[C@H](Nc1ccc(F)c(C(F)(F)F)c1)C(=O)N1C[C@H](OC(=O)N2Cc3cccc(Cl)c3C2)C[C@H]1C(=O)N[C@]1(C(=O)NS(=O)(=O)C2(C)CC2)C[C@H]1C1CC1 [Compound 310] | > 7.00 | > 7.00
16 | CC[C@@H]1C[C@]1(NC(=O)[C@@H]1C[C@@H](Oc2cc(-c3nc(C(C)C)cs3)nc3c(C)c(OC)ccc23)CN1C(=O)[C@@H](Nc1ccccc1[N+](=O)[O-])C(C)(C)C)C(=O)NS(=O)(=O)C1CC1 [Compound 350] | < 6.00 | > 7.00
17 | C=C[C@@H]1C[C@]1(NC(=O)[C@@H]1C[C@@H](Oc2cc(-c3nc(C(C)C)cs3)nc3c(C)c(OC)ccc23)CN1C(=O)[C@@H](Nc1ccc(F)c(C(F)(F)F)c1)C(C)(C)C)C(=O)NS(=O)(=O)C1(C)CC1 [Compound 305] | > 7.00 | > 7.00
